Measurements from patent US7714173B2, “Method for purifying terephthalaldehyde” (LG Chem, Ltd., priority 2006, dated 2010).
Values after ≈ are worked out from the molar mass of the structure shown.

Experiments:
[1] = physchem
[2] = Solubility of terephthalaldehyde and major impurities in water and dimethylsulfoxide; conditions: solvent H2O, measured at 25° C.
[3] = Stability of terephthalaldehyde in the dissolving solvent; type: physicochemical
Description: In a method for purifying terephthalaldehyde which comprises dissolving crude terephthalaldehyde in a solvent and then re-crystallizing the solution, using an anti-solvent, the present invention is characterized by using dimethylsulfoxide as the solvent. In the method for purifying terephthalaldehyde according to the present invention, usual alcohols or ethers may be used as a solvent dissolving terephthalaldehyde. However, dimethylsulfoxide according to the present invention has more excellent solubility of terephthalaldehyde and major impurities than those of the alcohols or the ethers, and may prepare terephthalaldehyde in a higher yield and purity.

[4] = 25 °C, organic solvent or mixture

O=Cc1ccc(C(=O)O)cc1 [4-CBA, 4-carboxybenzaldehyde]
solubility ([1]; dimethylsulfoxide (DMSO), 25 °C, organic solvent or mixture): 1000 mg/mL (≈ 6660 mM) | solubility ([1]; water, 25 °C): < 1.67 mg/mL

O=C(O)c1ccc(C(=O)O)cc1 [TPA, terphthalic acid]
Solubility in H2O [2]: <1.67 mg/mL

Oc1ccc(O)cc1 [HQ, hydroquinone]
solubility [1, 4]: 1000 mg/mL (≈ 9080 mM) | solubility ([1]; 25 °C, water): 20 mg/mL (≈ 182 mM)

O=Cc1ccc(C=O)cc1 [terephthalaldehyde]
Stability in alcohols such as methanol ([3]; alcohols such as methanol as solvent): changed into a material such as acetal | Stability in dimethylsulfoxide ([3]; dimethylsulfoxide as solvent): such change is not occurred

O=Cc1ccc(O)cc1 [4-HBA, 4-hydroxybenzaldehyde]
solubility [1, 4]: 1000 mg/mL (≈ 8190 mM) | solubility ([1]; 25 °C, water): 2.5 mg/mL (≈ 20.5 mM)
